Laboratory results: PubChem BioAssay (NCI)
“And” between values parts separate entries of the source, which are not always exact repeats. Equal values may be shown once.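 Values below derive from 48-hour exposures of cells grown in 96-well plates, with endpoints linearly interpolated between the two concentrations bracketing the appropriate inhibition level. GI50 is the concentration that inhibits growth by half. TGI marks complete inhibition of growth.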

Assays:
Experiment in all cases: DTP human tumour cell line panel, 48 h
786-0 renal = tested on: 786-0 renal
A549 NSCLC = tested on: A549 NSCLC
ACHN renal = tested on: ACHN renal
CCRF-CEM leukemia = tested on: CCRF-CEM leukemia
COLO 205 colon = tested on: COLO 205 colon
DLD-1 colon = tested on: DLD-1 colon
DMS 114 small cell lung = tested on: DMS 114 small cell lung
EKVX NSCLC = tested on: EKVX NSCLC
HCC-2998 colon = tested on: HCC-2998 colon
HCT-15 colon = tested on: HCT-15 colon
HL-60(TB) leukemia = tested on: HL-60(TB) leukemia
HOP-18 NSCLC = tested on: HOP-18 NSCLC
HOP-92 NSCLC = tested on: HOP-92 NSCLC
HT29 colon = tested on: HT29 colon
IGROV1 ovarian = tested on: IGROV1 ovarian
K-562 leukemia = tested on: K-562 leukemia
KM12 colon = tested on: KM12 colon
LXFL 529 NSCLC = tested on: LXFL 529 NSCLC
M14 melanoma = tested on: M14 melanoma
M19-MEL melanoma = tested on: M19-MEL melanoma
MALME-3M melanoma = tested on: MALME-3M melanoma
MOLT-4 leukemia = tested on: MOLT-4 leukemia
NCI-H226 lung = tested on: NCI-H226 lung
NCI-H23 lung = tested on: NCI-H23 lung
NCI-H460 lung = tested on: NCI-H460 lung
NCI-H522 lung = tested on: NCI-H522 lung
OVCAR-3 ovarian = tested on: OVCAR-3 ovarian
OVCAR-5 ovarian = tested on: OVCAR-5 ovarian
OVCAR-8 ovarian = tested on: OVCAR-8 ovarian
RPMI-8226 leukemia = tested on: RPMI-8226 leukemia
RXF 393 renal = tested on: RXF 393 renal
SF-268 CNS = tested on: SF-268 CNS
SF-295 CNS = tested on: SF-295 CNS
SF-539 CNS = tested on: SF-539 CNS
SK-MEL-2 melanoma = tested on: SK-MEL-2 melanoma
SK-MEL-28 melanoma = tested on: SK-MEL-28 melanoma
SK-MEL-5 melanoma = tested on: SK-MEL-5 melanoma
SK-OV-3 ovarian = tested on: SK-OV-3 ovarian
SN12C renal = tested on: SN12C renal
SNB-19 CNS = tested on: SNB-19 CNS
SR leukemia = tested on: SR leukemia
SW-620 colon = tested on: SW-620 colon
TK-10 renal = tested on: TK-10 renal
U251 CNS = tested on: U251 CNS
UACC-257 melanoma = tested on: UACC-257 melanoma
UO-31 renal = tested on: UO-31 renal
XF 498 CNS = tested on: XF 498 CNS
A498 renal = tested on: A498 renal
CAKI-1 renal = tested on: CAKI-1 renal
DMS 273 small cell lung = tested on: DMS 273 small cell lung
HCT-116 colon = tested on: HCT-116 colon
HOP-62 NSCLC = tested on: HOP-62 NSCLC
KM20L2 colon = tested on: KM20L2 colon
LOX IMVI melanoma = tested on: LOX IMVI melanoma
OVCAR-4 ovarian = tested on: OVCAR-4 ovarian
SNB-75 CNS = tested on: SNB-75 CNS
SNB-78 CNS = tested on: SNB-78 CNS
UACC-62 melanoma = tested on: UACC-62 melanoma

## C#C[C@@]1(O)CCCC2=CC(=O)C[C@]21C
786-0 renal
  TGI: > 100 µM
A549 NSCLC
  TGI: > 100 µM
ACHN renal
  TGI: > 100 µM
CCRF-CEM leukemia
  TGI: > 100 µM
COLO 205 colon
  TGI: > 100 µM
DLD-1 colon
  TGI: > 100 µM
DMS 114 small cell lung
  TGI: > 100 µM
EKVX NSCLC
  TGI: > 100 µM
HCC-2998 colon
  TGI: > 100 µM
HCT-15 colon
  TGI: > 100 µM
HL-60(TB) leukemia
  TGI: > 100 µM
HOP-18 NSCLC
  TGI: > 100 µM
HOP-92 NSCLC
  TGI: > 100 µM
HT29 colon
  TGI: > 100 µM
IGROV1 ovarian
  TGI: > 100 µM
K-562 leukemia
  TGI: > 100 µM
KM12 colon
  TGI: > 100 µM
LXFL 529 NSCLC
  TGI: > 100 µM
M14 melanoma
  TGI: > 100 µM
M19-MEL melanoma
  TGI: > 100 µM
MALME-3M melanoma
  TGI: > 100 µM
MOLT-4 leukemia
  TGI: > 100 µM
NCI-H226 lung
  TGI: > 100 µM
NCI-H23 lung
  TGI: > 100 µM
NCI-H460 lung
  TGI: > 100 µM
NCI-H522 lung
  TGI: > 100 µM
OVCAR-3 ovarian
  TGI: > 100 µM
OVCAR-5 ovarian
  TGI: > 100 µM
OVCAR-8 ovarian
  TGI: > 100 µM
RPMI-8226 leukemia
  TGI: > 100 µM
RXF 393 renal
  TGI: > 100 µM
SF-268 CNS
  TGI: > 100 µM
SF-295 CNS
  TGI: > 100 µM
SF-539 CNS
  TGI: > 100 µM
SK-MEL-2 melanoma
  TGI: > 100 µM
SK-MEL-28 melanoma
  TGI: > 100 µM
SK-MEL-5 melanoma
  TGI: > 100 µM
SK-OV-3 ovarian
  TGI: > 100 µM
SN12C renal
  TGI: > 100 µM
SNB-19 CNS
  TGI: > 100 µM
SR leukemia
  TGI: > 100 µM
SW-620 colon
  TGI: > 100 µM
TK-10 renal
  TGI: > 100 µM
U251 CNS
  TGI: > 100 µM
UACC-257 melanoma
  TGI: > 100 µM
UO-31 renal
  TGI: > 100 µM
XF 498 CNS
  TGI: > 100 µM

## CCCCCCCCCCCCCC(=O)OC(/C=C/C(C)C)C(O)C(O)C(OC)C(=O)NC1CCCCNC1=O (stereo not given)
786-0 renal
  GI50: 1.56 µM
  TGI: 3.93 µM
A498 renal
  TGI: 14.6 µM
A549 NSCLC
  GI50: 1.12 µM
  TGI: 4.28 µM
ACHN renal
  GI50: 4.1 µM
  TGI: 4.76 µM
CAKI-1 renal
  TGI: 3.81 µM
CCRF-CEM leukemia
  GI50: 5.7 µM
  TGI: 11.9 µM
COLO 205 colon
  TGI: 3.69 µM
DLD-1 colon
  TGI: 5.07 µM
DMS 114 small cell lung
  TGI: 3.85 µM
DMS 273 small cell lung
  TGI: 2.81 µM
EKVX NSCLC
  TGI: 11.5 µM
HCC-2998 colon
  GI50: 5.64 µM
  TGI: 4.13 µM
HCT-116 colon
  GI50: 1.22 µM
  TGI: 3.97 µM
HCT-15 colon
  GI50: 4.25 µM
  TGI: 4.8 µM
HL-60(TB) leukemia
  TGI: 10.4 µM
HOP-18 NSCLC
  TGI: 10.5 µM
HOP-62 NSCLC
  GI50: 3.88 µM
  TGI: 6.8 µM
HOP-92 NSCLC
  TGI: 3.76 µM
HT29 colon
  GI50: 4.03 µM
  TGI: 4.51 µM
IGROV1 ovarian
  GI50: 0.65 µM
  TGI: 5.15 µM
K-562 leukemia
  GI50: 2.68 µM
  TGI: 10.2 µM
KM12 colon
  GI50: 3.92 µM
  TGI: 4.59 µM
KM20L2 colon
  TGI: 4.89 µM
LOX IMVI melanoma
  GI50: 1.73 µM
  TGI: 4.38 µM
LXFL 529 NSCLC
  TGI: 4.88 µM
M14 melanoma
  GI50: 2.61 µM
  TGI: 4.35 µM
MALME-3M melanoma
  TGI: 5.36 µM
MOLT-4 leukemia
  GI50: 5.57 µM
  TGI: 10.5 µM
NCI-H226 lung
  TGI: 8.95 µM
NCI-H23 lung
  GI50: 8.82 µM
  TGI: 5 µM
NCI-H460 lung
  GI50: 0.461 µM
  TGI: 3.85 µM
NCI-H522 lung
  GI50: 5.27 µM
  TGI: 4.23 µM
OVCAR-3 ovarian
  GI50: 6.19 µM
  TGI: 5.38 µM
OVCAR-4 ovarian
  GI50: 3.97 µM
  TGI: 6.76 µM
OVCAR-5 ovarian
  TGI: 9.63 µM
OVCAR-8 ovarian
  GI50: 2.77 µM
  TGI: 5.08 µM
RPMI-8226 leukemia
  TGI: 15.9 µM
RXF 393 renal
  TGI: 3.38 µM
SF-268 CNS
  TGI: 3.63 µM
SF-295 CNS
  GI50: 2.92 µM
  TGI: 4.42 µM
SF-539 CNS
  GI50: 2.29 µM
  TGI: 5.22 µM
SK-MEL-2 melanoma
  TGI: 6.03 µM
SK-MEL-28 melanoma
  TGI: 5.11 µM
SK-MEL-5 melanoma
  GI50: 6.53 µM
  TGI: 5.25 µM
SK-OV-3 ovarian
  TGI: 10.4 µM
SN12C renal
  TGI: 4.39 µM
SNB-19 CNS
  TGI: 9.08 µM
SNB-75 CNS
  GI50: 4.63 µM
  TGI: 9.46 µM
SNB-78 CNS
  TGI: 9.18 µM
SR leukemia
  GI50: 0.381 µM
  TGI: 2.04 µM and 9.05 µM
SW-620 colon
  GI50: 4.4 µM
  TGI: 4.46 µM
TK-10 renal
  GI50: 8.26 µM
  TGI: 11.6 µM
U251 CNS
  GI50: 2.47 µM
  TGI: 4.3 µM
UACC-257 melanoma
  GI50: 6.37 µM
  TGI: 6.5 µM
UACC-62 melanoma
  GI50: 4.28 µM
  TGI: 3.74 µM
UO-31 renal
  TGI: 4.98 µM
XF 498 CNS
  TGI: 5.47 µM

## O=C1CCCC(=O)C1=C(O)CCCCCCCCCCc1ccccc1
786-0 renal
  TGI: > 100 µM
A549 NSCLC
  TGI: > 100 µM
ACHN renal
  TGI: > 100 µM
CAKI-1 renal
  TGI: 38 µM
CCRF-CEM leukemia
  TGI: 70.8 µM
COLO 205 colon
  TGI: 31.8 µM
DLD-1 colon
  TGI: > 100 µM
DMS 114 small cell lung
  TGI: 53.4 µM
DMS 273 small cell lung
  TGI: > 100 µM
EKVX NSCLC
  TGI: > 100 µM
HCC-2998 colon
  TGI: > 100 µM
HCT-116 colon
  TGI: > 100 µM
HL-60(TB) leukemia
  TGI: 35.1 µM
HOP-18 NSCLC
  TGI: > 100 µM
HOP-62 NSCLC
  TGI: > 100 µM
HOP-92 NSCLC
  TGI: 39.6 µM
HT29 colon
  TGI: 79 µM
IGROV1 ovarian
  TGI: > 100 µM
K-562 leukemia
  TGI: > 100 µM
KM12 colon
  TGI: > 100 µM
KM20L2 colon
  TGI: > 100 µM
LOX IMVI melanoma
  TGI: > 100 µM
LXFL 529 NSCLC
  TGI: > 100 µM
M14 melanoma
  TGI: > 100 µM
M19-MEL melanoma
  TGI: 97.9 µM
MOLT-4 leukemia
  TGI: > 100 µM
NCI-H226 lung
  TGI: 96.9 µM
NCI-H23 lung
  TGI: > 100 µM
NCI-H460 lung
  TGI: > 100 µM
NCI-H522 lung
  TGI: 82.2 µM
OVCAR-3 ovarian
  TGI: > 100 µM
OVCAR-4 ovarian
  TGI: > 100 µM
OVCAR-5 ovarian
  TGI: 74.6 µM
OVCAR-8 ovarian
  TGI: > 100 µM
RPMI-8226 leukemia
  TGI: > 100 µM
RXF 393 renal
  TGI: 92.7 µM
SF-268 CNS
  TGI: > 100 µM
SF-295 CNS
  TGI: > 100 µM
SF-539 CNS
  TGI: > 100 µM
SK-MEL-2 melanoma
  TGI: 49.1 µM
SK-MEL-28 melanoma
  TGI: > 100 µM
SK-MEL-5 melanoma
  TGI: 49.5 µM
SK-OV-3 ovarian
  TGI: 96.8 µM
SN12C renal
  TGI: > 100 µM
SNB-19 CNS
  TGI: > 100 µM
SNB-75 CNS
  TGI: 95.4 µM
SNB-78 CNS
  TGI: > 100 µM
SR leukemia
  TGI: 71.9 µM
SW-620 colon
  TGI: > 100 µM
TK-10 renal
  TGI: > 100 µM
U251 CNS
  TGI: > 100 µM
UACC-257 melanoma
  TGI: > 100 µM
UACC-62 melanoma
  TGI: > 100 µM
UO-31 renal
  TGI: 60.1 µM
XF 498 CNS
  TGI: > 100 µM
